Experimental data taken from patent US9096550B2, “Bryostatin analogues and methods of making and using thereof” (UNIVERSITY OF UTAH RESEARCH FOUNDATION, priority 2008, dated 2015).

Assays:
U937 cells [1] = experiment: Attachment of U937 cells; assay type: cell-based, human
Protocol: (§1) U937 cells (Sundstrom, C.; Nilsson, K.: Establishment and characterization of a human histiocytic lymphoma cell line (U-937). Int. J. Cancer 1976, 17: 565-577.), purchased from ATCC (Manassas, Va.) and cultured in RPMI-1640 medium supplemented with 10% FBS (ATCC, Manassas, Va.), were plated in 35 mm dishes at a density of 2×10^5 living cells/ml and treated with different concentrations of the drugs or DMSO. After 72 hours, the number of cells in the supernatant (non-attached cells) and the number of attached cells (after trypsinization) were counted using a Beckman particle counter (Beckman Coulter Inc., Fullerton, Calif.). The number of attached cells is expressed as percent of total cells (FIGS. 8-10).
(§2) U937 cells were treated with PMA (0.1-100 nM), bryostatin 1 (1-1000 nM), the indicated compound (1-1000 nM), 10 nM PMA with different concentrations of bryostatin 1 (1-1000 nM) or 10 nM PMA with different concentrations of indicated compound (1-1000 nM) for 72 hours. The number of attached cells and total cells were counted and the attached cells were graphed as percent of total cells. The bars and error bars represent the average and the standard error of the mean of five independent experiment (FIGS. 8-10).
(§3) U937 cells (Sundstrom and Nilsson, 1976), purchased from ATCC (Manassas, Va.) and cultured in RPMI-1640 medium supplemented with 10% FBS (ATCC, Manassas, Va.), were plated in 35 mm dishes at a density of 1×10^5 living cells/ml and treated with different concentrations of the drugs or DMSO. After 72 hours, the number of cells in the supernatant (non-attached cells) and the number of attached cells (after trypsinization) were counted using a particle counter. The number of attached cells is expressed as percent of total cells.
(§4) U937 cells were treated with PMA (0.01-100 nM), bryostatin1 (0.1-1000 nM), analogue 12 (MERLE 28) (0.1-1000 nM), 10 nM PMA with different concentrations of bryostatin 1 (0.1-1000 nM) or 10 nM PMA with different concentrations of analogue 12 (0.1-1000 nM). The number of attached cells and total cells were counted and the attached cells were graphed as percent of total cells. The bars and error bars represent the average and the standard error of the mean of at least three independent experiments.
as §3, with “U-937” for “U937”
as §2, with “U-937” for “U937”, “at least three” for “five”, “experiments.” for “experiment (FIGS. 8-10).”

U937 cells [2] = experiment: Inhibition of U937 cell proliferation; assay type: cell-based, human
Protocol: as §1
as §2, with “nM).” for “nM) for 72 hours.”, “attached and non-attached” for “attached”, “was” for “and total cells were”, “number” for “attached cells were graphed as percent”, “cells was expressed as % of control.” for “cells.”, “experiments” for “experiment”
as §3
as §4, with “12” for “12 (MERLE 28)”, “The numbers” for “The number”, “attached” for “attached cells”, “and non-attached” for “and total”, “the number” for “the attached cells were graphed as percent”, “total cells was expressed as % of control.” for “total cells.”
as §3, with “U-937” for “U937”
U-937 cells were treated with PMA (0.1-100 nM), bryostatin 1 (1-1000 nM), the indicated compound (1-1000 nM), 10 nM PMA with different concentrations of bryostatin 1 (1-1000 nM) or 10 nM PMA with different concentrations of indicated compound (1-1000 nM). The number of attached and non-attached cells was counted and the number of total cells was expressed as % of control. The bars and error bars represent the average and the standard error of the mean of at least three independent experiments.

LNCaP cells = experiment: Proliferation of LNCaP cells (Incucyte confluency); assay type: cell-based, human; details: 300 nM PMA combined with 1000 nM compound, 80 hrs
Protocol: FIGS. 12A-D show the effect of different compounds on the proliferation and apoptosis of LNCaP cells. […] Time-elapsed images were taken with an Incucyte imaging system every hour for 4 days. The proliferation of LNCaP cells is presented as increase in confluency (read by the instrument) at 80 hrs. Data represent the means+SEM of three independent experiments. […] Apoptosis was measured 2 days after treatment by flow cytometry using 7-AAD and Yo-Pro-1 as described in Materials and Methods. Data represent the means+SEM of three independent experiments.
FIGS. 13A and 13B show the proliferation and morphology of LNCaP cells detected by Incucyte. LNCaP cells were treated with DMSO as control, 300 nM PMA, 1000 nM bryostatin 1 or the bryologue MERLE 21, or with 300 nM PMA in combination with 1000 nM bryostatin 1 or the bryologue MERLE 21. Time-elapsed images were taken by the Incucyte imaging system every hour. […] The arrow indicates the time of treatment. Data are representative of three independent experiments.
The extent of confluency of LNCaP cells (from ATCC, Manassas, Va.) and the morphological changes after treatment were followed in real time using Incucyte (Essen Instruments, Ann Arbor, Mich.). Images of LNCaP cells plated into 24 well plates were taken every 1 hour by the instrument before and after treatment for a total of 4 days. The confluency of the cells was calculated by the instrument's program. The proliferation of LNCaP cells was expressed as the difference in cell confluency before and after treatment.

C3H10T1/2 cells = experiment: Release of arachidonic acid from C3H10T1/2 cells; assay type: cell-based, mouse; details: % of the maximal PMA-induced response relative to the DMSO control, 2 hour treatment
Protocol: FIGS. 15A and 15B show the release of arachidonic acid from treated C3H10T1/2 cells. The cells were labeled with [^3H]arachidonic acid for 18 hrs, treated with DMSO as control, different concentrations of PMA (0.1-100 nM), bryostatin 1 (1-1000 nM), the bryologues (1-1000 nM) (A) or 100 nM PMA in combination with 1000 nM bryostatin 1, or the bryologues MERLE 21, 22, 23. The radioactive arachidonic acid released into the medium was quantitated after 2 hour treatment. The response of 100 nM PMA was taken as 100%. Data represent the means+SEM of four (FIG. 15A) or three (FIG. 15B) independent experiments.
C3H10T1/2 cells (ATCC, Manassas, Va.) were plated in 24 well plates and treated with different drugs or with DMSO as control. The release of arachidonic acid after 2 hour treatment was measured as described previously (Dell′Aquila M L, Herald C L, Kamano Y, Pettit G R, Blumberg P M. Differential effects of byrostatins and phorbol esters on arachidonic acid metabolite release and epidermal growth factor binding in C3H10T1/2 cells. Cancer Res 1988; 48: 3702-3708).

[3] = 10 nM PMA with different concentrations of compound

## C=C1C[C@H]2CC3(O)O[C@H](C[C@@H](O)CC(=O)O[C@@H]([C@@H](C)O)C[C@@H]4C/C(=C\C(=O)OC)[C@H](OC(=O)/C=C/C=C/CCC)[C@@](O)(O4)C(C)(C)/C=C/[C@@H](C1)O2)C[C@H](OC(C)=O)C3(C)C [MERLE 28]
U937 cells [1]; [3]
  block of PMA-induced attachment of U937 cells: functional antagonist of PMA and blocks the effect of the phorbol ester
U937 cells [1]; compound alone, 72 hours
  attachment of U937 cells: approaches that of bryostatin 1 itself
U937 cells [2]; [3]
  block of PMA inhibition of U937 cell proliferation: Both of these aspects of bryostatin 1 induced biological response are captured
U937 cells [2]; compound alone
  inhibition of U937 cell proliferation: very similar to those for bryostatin 1

## C=C1C[C@@H]2C[C@@H]3CC(=C)C[C@H](/C=C/C(C)(C)[C@]4(O)O[C@@H](C/C(=C\C(=O)OC)[C@@H]4OC(=O)c4ccccc4)C[C@H]([C@@H](C)O)OC(=O)C[C@H](O)C[C@H](C1)O2)O3 [MERLE 21]
LNCaP cells
  block of the PMA inhibition of LNCaP cell growth: did not appear to quite reach the level observed for bryostatin 1
C3H10T1/2 cells
  arachidonic acid release, average level of response: 73%

## C=C1C[C@@H]2C[C@@H]3CC(=C)C[C@H](/C=C/C(C)(C)[C@]4(O)O[C@@H](C/C(=C\C(=O)OC)[C@@H]4OC(=O)/C=C/C=C/CCC)C[C@H]([C@@H](C)O)OC(=O)C[C@H](O)C[C@H](C1)O2)O3 [MERLE 23]
LNCaP cells
  block of the PMA inhibition of LNCaP cell growth: did not appear to quite reach the level observed for bryostatin 1
C3H10T1/2 cells
  arachidonic acid release, average level of response: 64%

## C=C1C[C@@H]2C[C@@H]3CC(=C)C[C@H](/C=C/C(C)(C)[C@]4(O)O[C@@H](C/C(=C\C(=O)OC)[C@@H]4OC(=O)CCCCCCC)C[C@H]([C@@H](C)O)OC(=O)C[C@H](O)C[C@H](C1)O2)O3 [MERLE 22]
LNCaP cells
  block of the PMA inhibition of LNCaP cell growth: did not appear to quite reach the level observed for bryostatin 1
C3H10T1/2 cells
  arachidonic acid release, average level of response: 69%
